# Assay results: PubChem BioAssay (NCI)
#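 How tested: cells in 96-well plates exposed to compound for 48 hours at five concentrations. GI50: concentration for 50% inhibition of growth. TGI is the concentration that stops growth completely.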
# What was measured:
# Test in all cases: NCI tumour cell line growth inhibition, 48 h
# UACC-257 melanoma = test system: UACC-257 melanoma
# CAKI-1 renal = test system: CAKI-1 renal
# OVCAR-4 ovarian = test system: OVCAR-4 ovarian
# HOP-92 NSCLC = test system: HOP-92 NSCLC
# HS 578T breast = test system: HS 578T breast
# SK-MEL-5 melanoma = test system: SK-MEL-5 melanoma
# DU-145 prostate = test system: DU-145 prostate
# NCI-H226 lung = test system: NCI-H226 lung
# NCI-H522 lung = test system: NCI-H522 lung
# ACHN renal = test system: ACHN renal
# HCT-15 colon = test system: HCT-15 colon
# SF-268 CNS = test system: SF-268 CNS
# T-47D breast = test system: T-47D breast
# SK-MEL-2 melanoma = test system: SK-MEL-2 melanoma
# LOX IMVI melanoma = test system: LOX IMVI melanoma
# SNB-75 CNS = test system: SNB-75 CNS
# OVCAR-5 ovarian = test system: OVCAR-5 ovarian
# CCRF-CEM leukemia = test system: CCRF-CEM leukemia
# SK-MEL-28 melanoma = test system: SK-MEL-28 melanoma
# UO-31 renal = test system: UO-31 renal
# SK-OV-3 ovarian = test system: SK-OV-3 ovarian
# COLO 205 colon = test system: COLO 205 colon
# NCI-H460 lung = test system: NCI-H460 lung
# U251 CNS = test system: U251 CNS
# UACC-62 melanoma = test system: UACC-62 melanoma
# SNB-19 CNS = test system: SNB-19 CNS
# SF-295 CNS = test system: SF-295 CNS
# NCI/ADR-RES ovarian = test system: NCI/ADR-RES ovarian
# RPMI-8226 leukemia = test system: RPMI-8226 leukemia
# SF-539 CNS = test system: SF-539 CNS
# RXF 393 renal = test system: RXF 393 renal
# EKVX NSCLC = test system: EKVX NSCLC
# MOLT-4 leukemia = test system: MOLT-4 leukemia
# SW-620 colon = test system: SW-620 colon
# MDA-MB-435 = test system: MDA-MB-435
# PC-3 prostate = test system: PC-3 prostate
# 786-0 renal = test system: 786-0 renal
# MALME-3M melanoma = test system: MALME-3M melanoma
# OVCAR-3 ovarian = test system: OVCAR-3 ovarian
# KM12 colon = test system: KM12 colon
# HL-60(TB) leukemia = test system: HL-60(TB) leukemia
# NCI-H23 lung = test system: NCI-H23 lung
# M14 melanoma = test system: M14 melanoma
# A549 NSCLC = test system: A549 NSCLC
# HCC-2998 colon = test system: HCC-2998 colon
# TK-10 renal = test system: TK-10 renal
# SN12C renal = test system: SN12C renal
# MCF7 breast = test system: MCF7 breast
# OVCAR-8 ovarian = test system: OVCAR-8 ovarian
# K-562 leukemia = test system: K-562 leukemia
# IGROV1 ovarian = test system: IGROV1 ovarian
# HOP-62 NSCLC = test system: HOP-62 NSCLC
# HT29 colon = test system: HT29 colon
# MDA-MB-231 breast = test system: MDA-MB-231 breast
# A498 renal = test system: A498 renal
# BT-549 breast = test system: BT-549 breast
smiles,measurement,setting,value
CC(C)(C)c1cc(C(=O)Nc2cc3ccccc3cc2C(=O)NCCN)cc(C(C)(C)C)c1,GI50,UACC-257 melanoma,2350 nM
same,TGI,UACC-257 melanoma,4980 nM
same,GI50,CAKI-1 renal,1130 nM
same,TGI,CAKI-1 renal,2440 nM
same,GI50,OVCAR-4 ovarian,1240 nM
same,TGI,OVCAR-4 ovarian,2700 nM
same,GI50,HOP-92 NSCLC,146 nM
same,TGI,HOP-92 NSCLC,396 nM
same,GI50,HS 578T breast,1650 nM
same,TGI,HS 578T breast,4570 nM
same,GI50,SK-MEL-5 melanoma,1650 nM
same,TGI,SK-MEL-5 melanoma,3170 nM
same,GI50,DU-145 prostate,374 nM
same,TGI,DU-145 prostate,1290 nM
COC1C(CO)OC(n2c3ccccc3c3c4c(c5c6ccccc6[nH]c5c32)C(=O)NC4=O)C(O)C1OC(=O)C(N)CCCCN (centres undefined),GI50,NCI-H226 lung,777 nM
same,TGI,NCI-H226 lung,9590 nM
same,GI50,NCI-H522 lung,168 nM
same,TGI,NCI-H522 lung,3550 nM
same,GI50,ACHN renal,713 nM
same,TGI,ACHN renal,3510 nM
same,GI50,HCT-15 colon,8980 nM
same,TGI,HCT-15 colon,> 39500 nM
same,GI50,SF-268 CNS,379 nM
same,TGI,SF-268 CNS,14500 nM
same,TGI,T-47D breast,> 10300 nM
same,GI50,SK-MEL-2 melanoma,1930 nM
same,TGI,SK-MEL-2 melanoma,9910 nM
same,GI50,LOX IMVI melanoma,261 nM
same,GI50,UACC-257 melanoma,648 nM
same,TGI,UACC-257 melanoma,> 10200 nM
same,GI50,SNB-75 CNS,3620 nM
same,TGI,SNB-75 CNS,> 22800 nM
same,GI50,OVCAR-5 ovarian,3120 nM
same,TGI,OVCAR-5 ovarian,> 50000 nM
same,GI50,CCRF-CEM leukemia,230 nM
same,TGI,CCRF-CEM leukemia,> 50000 nM
same,GI50,SK-MEL-28 melanoma,2670 nM
same,TGI,SK-MEL-28 melanoma,> 18200 nM
same,GI50,CAKI-1 renal,1210 nM
same,TGI,CAKI-1 renal,11700 nM
same,GI50,UO-31 renal,997 nM
same,TGI,UO-31 renal,5500 nM
same,GI50,SK-OV-3 ovarian,2110 nM
same,TGI,SK-OV-3 ovarian,> 15500 nM
same,GI50,COLO 205 colon,1270 nM
same,TGI,COLO 205 colon,> 17200 nM
same,GI50,OVCAR-4 ovarian,3830 nM
same,TGI,OVCAR-4 ovarian,> 50000 nM
same,GI50,NCI-H460 lung,3640 nM
same,TGI,NCI-H460 lung,27100 nM
same,GI50,U251 CNS,282 nM
same,TGI,U251 CNS,> 11500 nM
same,GI50,UACC-62 melanoma,283 nM
same,TGI,UACC-62 melanoma,1300 nM
same,GI50,SNB-19 CNS,1310 nM
same,TGI,SNB-19 CNS,> 50000 nM
same,GI50,SF-295 CNS,1260 nM
same,TGI,SF-295 CNS,7430 nM
same,GI50,NCI/ADR-RES ovarian,> 50000 nM
same,TGI,NCI/ADR-RES ovarian,> 50000 nM
same,GI50,RPMI-8226 leukemia,> 15700 nM
same,TGI,RPMI-8226 leukemia,> 35500 nM
same,GI50,SF-539 CNS,165 nM
same,TGI,SF-539 CNS,821 nM
same,GI50,HOP-92 NSCLC,1540 nM
same,TGI,HOP-92 NSCLC,12900 nM
same,GI50,RXF 393 renal,2440 nM
same,TGI,RXF 393 renal,14800 nM
same,GI50,EKVX NSCLC,1690 nM
same,TGI,EKVX NSCLC,8860 nM
same,GI50,MOLT-4 leukemia,178 nM
same,TGI,MOLT-4 leukemia,> 50000 nM
same,GI50,SW-620 colon,198 nM
same,TGI,SW-620 colon,> 16900 nM
same,GI50,MDA-MB-435,1070 nM
same,TGI,MDA-MB-435,5040 nM
same,GI50,PC-3 prostate,1430 nM
same,TGI,PC-3 prostate,> 42300 nM
same,GI50,786-0 renal,653 nM
same,TGI,786-0 renal,> 21500 nM
same,GI50,MALME-3M melanoma,110 nM
same,TGI,MALME-3M melanoma,946 nM
same,GI50,OVCAR-3 ovarian,822 nM
same,TGI,OVCAR-3 ovarian,5100 nM
same,GI50,KM12 colon,499 nM
same,TGI,KM12 colon,4130 nM
same,GI50,HL-60(TB) leukemia,231 nM
same,TGI,HL-60(TB) leukemia,> 50000 nM
same,GI50,NCI-H23 lung,2790 nM
same,TGI,NCI-H23 lung,> 50000 nM
same,GI50,M14 melanoma,689 nM
same,TGI,M14 melanoma,> 11000 nM
same,GI50,HS 578T breast,1930 nM
same,TGI,HS 578T breast,12200 nM
same,GI50,A549 NSCLC,3270 nM
same,TGI,A549 NSCLC,> 50000 nM
same,GI50,HCC-2998 colon,1570 nM
same,TGI,HCC-2998 colon,17800 nM
same,GI50,TK-10 renal,1810 nM
same,TGI,TK-10 renal,14600 nM
same,GI50,SN12C renal,405 nM
same,TGI,SN12C renal,2360 nM
same,GI50,MCF7 breast,1130 nM
same,TGI,MCF7 breast,> 50000 nM
same,GI50,OVCAR-8 ovarian,490 nM
same,TGI,OVCAR-8 ovarian,> 50000 nM
same,GI50,K-562 leukemia,414 nM
same,TGI,K-562 leukemia,> 50000 nM
same,GI50,IGROV1 ovarian,610 nM
same,TGI,IGROV1 ovarian,4420 nM
same,GI50,HOP-62 NSCLC,1090 nM
same,TGI,HOP-62 NSCLC,17400 nM
same,GI50,HT29 colon,2650 nM
same,TGI,HT29 colon,> 50000 nM
same,GI50,MDA-MB-231 breast,985 nM
same,TGI,MDA-MB-231 breast,8000 nM
same,GI50,SK-MEL-5 melanoma,208 nM
same,TGI,SK-MEL-5 melanoma,838 nM
same,GI50,A498 renal,917 nM
same,TGI,A498 renal,3110 nM
same,GI50,BT-549 breast,807 nM
same,TGI,BT-549 breast,5620 nM
same,GI50,DU-145 prostate,659 nM
same,TGI,DU-145 prostate,4050 nM
